Experimental data taken from ChEMBL document CHEMBL1201862, “PubChem BioAssay data set” (2004).
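Compound exposure: 48 hours, 5 concentrations, 96-well plates. GI50: concentration for 50% inhibition of growth.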 Active and inactive are the calls of the source. Rule as the data show it: active = GI50 up to about 1.1 µM and inactive = higher.

Assays:
Assay in all cases: NCI-60 cell line screen, 48 h
OVCAR-5 = tested on: OVCAR-5
SNB-19 = tested on: SNB-19
CAKI-1 = tested on: CAKI-1
OVCAR-8 = tested on: OVCAR-8
ACHN = tested on: ACHN
UO-31 = tested on: UO-31
MDA-MB-231 = tested on: MDA-MB-231
COLO 205 = tested on: COLO 205
NCI-H226 = tested on: NCI-H226
OVCAR-3 = tested on: OVCAR-3
DU-145 = tested on: DU-145
SF-295 = tested on: SF-295
MOLT-4 = tested on: MOLT-4
NCI/ADR-RES = tested on: NCI/ADR-RES
SF-539 = tested on: SF-539
HCT-116 = tested on: HCT-116
NCI-H460 = tested on: NCI-H460
IGROV-1 = tested on: IGROV-1
Hs-578T = tested on: Hs-578T
T47D = tested on: T47D

| Structure (SMILES) | GI50 (OVCAR-5) | GI50 (SNB-19) | GI50 (CAKI-1) | GI50 (OVCAR-8) | GI50 (ACHN) | GI50 (UO-31) | GI50 (MDA-MB-231) | GI50 (COLO 205) | GI50 (NCI-H226) | GI50 (OVCAR-3) | GI50 (DU-145) | GI50 (SF-295) | GI50 (MOLT-4) | GI50 (NCI/ADR-RES) | GI50 (SF-539) | GI50 (HCT-116) | GI50 (NCI-H460) | GI50 (IGROV-1) | GI50 (Hs-578T) | GI50 (T47D) |
| --- | --- | --- | --- | --- | --- | --- | --- | --- | --- | --- | --- | --- | --- | --- | --- | --- | --- | --- | --- | --- |
| CN1C(=O)C(O)CC1c1ccccc1F (centres undefined) | > 100 µM (inactive) | > 100 µM (inactive) | > 100 µM (inactive) | > 100 µM (inactive) | > 100 µM (inactive) | > 100 µM (inactive) | > 100 µM (inactive) | > 100 µM (inactive) | > 100 µM (inactive) | > 100 µM (inactive) | > 100 µM (inactive) | > 100 µM (inactive) | > 100 µM (inactive) | > 100 µM (inactive) | > 100 µM (inactive) | > 100 µM (inactive) | > 100 µM (inactive) | > 100 µM (inactive) |  |  |
| Nc1nc(Cl)c(/C=N\O)c(NCC2(CO)CC(=O)C2)n1 | 85.3 µM (inactive) | > 100 µM (inactive) | 75.3 µM (inactive) | > 100 µM (inactive) | 62.1 µM (inactive) | 47.4 µM (inactive) | 80.7 µM (inactive) | > 100 µM (inactive) | > 100 µM (inactive) | 60.1 µM (inactive) | 77.4 µM (inactive) | 56 µM (inactive) | 31.8 µM (inactive) | > 100 µM (inactive) | 78.2 µM (inactive) | 88.7 µM (inactive) | 67.3 µM (inactive) | 23.2 µM (inactive) | 18.7 µM (inactive) |  |
| O=C(ON=c1c2ccccc2ccc2ccccc12)c1cc([N+](=O)[O-])cc([N+](=O)[O-])c1 | > 100 µM (inactive) | > 100 µM (inactive) |  | 94.8 µM (inactive) | 45.4 µM (inactive) | 48 µM (inactive) | > 100 µM (inactive) | > 100 µM (inactive) | > 100 µM (inactive) | 94.6 µM (inactive) | 97.3 µM (inactive) | 43.8 µM (inactive) | 31.8 µM (inactive) | 48.4 µM (inactive) | > 100 µM (inactive) | 87.3 µM (inactive) | > 100 µM (inactive) | > 100 µM (inactive) | 76.7 µM (inactive) |  |
| COc1cc(/C=C2\C(=O)N(c3cccc([N+](=O)[O-])c3)C(c3ccccc3)S2(=O)=O)cc(OC)c1OC (centres undefined) | > 100 µM (inactive) | > 100 µM (inactive) | > 100 µM (inactive) | > 100 µM (inactive) | > 100 µM (inactive) | > 100 µM (inactive) | > 100 µM (inactive) | > 100 µM (inactive) | > 100 µM (inactive) | > 100 µM (inactive) | > 100 µM (inactive) | 97.5 µM (inactive) | 74 µM (inactive) | > 100 µM (inactive) |  | > 100 µM (inactive) | > 100 µM (inactive) | > 100 µM (inactive) |  | 63.7 µM (inactive) |
| O=c1oc2ccc3ccccc3c2cc1-c1nnc(-c2ccc([N+](=O)[O-])cc2)[nH]1 | > 100 µM (inactive) | 32.8 µM (inactive) | > 100 µM (inactive) | 21.4 µM (inactive) | 42.2 µM (inactive) | 53.1 µM (inactive) |  | > 100 µM (inactive) |  | > 100 µM (inactive) | 87.3 µM (inactive) | 36.6 µM (inactive) | 71.4 µM (inactive) | > 100 µM (inactive) | 18.7 µM (inactive) | > 100 µM (inactive) | > 100 µM (inactive) | 0.184 µM (active) | 11.5 µM (inactive) |  |
| NC(=S)N/N=c1\cc(C(=O)Nc2ccc([N+](=O)[O-])cc2[N+](=O)[O-])oc2ccccc12 | > 100 µM (inactive) | > 100 µM (inactive) | 75.2 µM (inactive) | > 100 µM (inactive) | > 100 µM (inactive) | 29.8 µM (inactive) | > 100 µM (inactive) | > 100 µM (inactive) | 88.9 µM (inactive) | 85.5 µM (inactive) | > 100 µM (inactive) | > 100 µM (inactive) | > 100 µM (inactive) | > 100 µM (inactive) | > 100 µM (inactive) | > 100 µM (inactive) | > 100 µM (inactive) | > 100 µM (inactive) | > 100 µM (inactive) |  |
| O=C(O)C1Cc2[nH]cnc2CN1 (centres undefined) | > 100 µM (inactive) | > 100 µM (inactive) | > 100 µM (inactive) | > 100 µM (inactive) | > 100 µM (inactive) | > 100 µM (inactive) |  | > 100 µM (inactive) | > 100 µM (inactive) | > 100 µM (inactive) |  | > 100 µM (inactive) | > 100 µM (inactive) |  | > 100 µM (inactive) | > 100 µM (inactive) | > 100 µM (inactive) | > 100 µM (inactive) |  |  |
| CCOC1NC(/N=C/c2ccc(OC)cc2)=C(C#N)C1C#N (centres undefined) | 87.5 µM (inactive) | 87.3 µM (inactive) | > 100 µM (inactive) | > 100 µM (inactive) | > 100 µM (inactive) | > 100 µM (inactive) | 64.6 µM (inactive) | 75.3 µM (inactive) | > 100 µM (inactive) | > 100 µM (inactive) | > 100 µM (inactive) | > 100 µM (inactive) | 92 µM (inactive) | > 100 µM (inactive) | 93.8 µM (inactive) | 63.1 µM (inactive) | > 100 µM (inactive) | > 100 µM (inactive) | 47.5 µM (inactive) |  |
| NS(=O)(=O)c1nnc(NC(=S)NC(=O)Nc2ccc(Cl)c(Cl)c2)s1 | 25.1 µM (inactive) | 28.3 µM (inactive) | 23.4 µM (inactive) | 22.1 µM (inactive) |  | 20.6 µM (inactive) | 30.4 µM (inactive) | 19.5 µM (inactive) | 23.9 µM (inactive) | 20.8 µM (inactive) | 20.8 µM (inactive) | 21.2 µM (inactive) | 29 µM (inactive) | 25.4 µM (inactive) | 2.39 µM (inactive) | 16.9 µM (inactive) |  | 17.2 µM (inactive) | 24.3 µM (inactive) |  |
| N#Cc1c(N)[nH]c(=S)c(C#N)c1-c1cccc(Cl)c1 | > 100 µM (inactive) | 56.2 µM (inactive) | 65.8 µM (inactive) | 30.1 µM (inactive) | 61.1 µM (inactive) | 32.8 µM (inactive) | 29.4 µM (inactive) | 15.2 µM (inactive) | 19.9 µM (inactive) | 26.9 µM (inactive) | 33.3 µM (inactive) | 34.9 µM (inactive) | 18.4 µM (inactive) | 67.1 µM (inactive) | 49.2 µM (inactive) | 24.4 µM (inactive) | 32.5 µM (inactive) | 32.9 µM (inactive) | 26.7 µM (inactive) |  |
| COc1ccc(N2C(=O)c3cc(C)cnc3S2(=O)=O)cc1 | > 100 µM (inactive) | > 100 µM (inactive) |  | > 100 µM (inactive) | > 100 µM (inactive) | > 100 µM (inactive) | > 100 µM (inactive) | > 100 µM (inactive) | > 100 µM (inactive) | > 100 µM (inactive) | > 100 µM (inactive) | > 100 µM (inactive) | > 100 µM (inactive) | > 100 µM (inactive) |  | > 100 µM (inactive) | > 100 µM (inactive) | > 100 µM (inactive) | > 100 µM (inactive) |  |
| C=CCc1cc(OC)c2c(c1)C(O)CC(c1ccccc1)O2 (centres undefined) | 78.5 µM (inactive) | > 100 µM (inactive) | 62.7 µM (inactive) | > 100 µM (inactive) | > 100 µM (inactive) | > 100 µM (inactive) |  | > 100 µM (inactive) | > 100 µM (inactive) | > 100 µM (inactive) |  | > 100 µM (inactive) | 27.9 µM (inactive) |  | > 100 µM (inactive) | > 100 µM (inactive) | > 100 µM (inactive) | > 100 µM (inactive) |  |  |
| COc1ccc(N2C(=O)C3c4[nH]c5ccccc5c4C4CCCCCCC4C3C2=O)cc1 (centres undefined) | > 52.1 µM (inactive) | 10.2 µM (inactive) | 17 µM (inactive) | 3.8 µM (inactive) | 6.38 µM (inactive) | 17.4 µM (inactive) |  | 13.2 µM (inactive) | 12.4 µM (inactive) | 5.93 µM (inactive) |  | 11.6 µM (inactive) | 8 µM (inactive) |  | 7.74 µM (inactive) | 3.85 µM (inactive) | 7.18 µM (inactive) | 18.2 µM (inactive) |  |  |
| CC(C)(c1ccccc1)c1ccc(Oc2ccc(C#N)c(C#N)c2)cc1 | > 10 µM (inactive) | 34.6 µM (inactive) | > 10 µM (inactive) | > 10 µM (inactive) | 33.8 µM (inactive) | 4.48 µM (inactive) |  | > 10 µM (inactive) | > 10 µM (inactive) | > 10 µM (inactive) |  | 4.47 µM (inactive) | 28.5 µM (inactive) |  | > 10 µM (inactive) | 36.6 µM (inactive) | > 10 µM (inactive) | > 10 µM (inactive) |  |  |
| CC1SC2(CCCCC2)N(NC(=O)CSc2nc3ccc(Cl)cc3c(=O)n2-c2ccccc2)C1=O (centres undefined) | 25.7 µM (inactive) | 24.1 µM (inactive) | 37.1 µM (inactive) | 26.1 µM (inactive) | 29.6 µM (inactive) | 21.1 µM (inactive) | 18.3 µM (inactive) | 13.8 µM (inactive) |  | 15.6 µM (inactive) | 27 µM (inactive) | 18.5 µM (inactive) | 7.53 µM (inactive) | 22.1 µM (inactive) | 17.3 µM (inactive) | 14 µM (inactive) | 16.8 µM (inactive) | 12 µM (inactive) |  | 27.3 µM (inactive) |
| CC1=C2C(=O)O[C@@H](c3ccoc3)[C@]2(C)CCC1 [FRAXINELLONE] | > 100 µM (inactive) | > 100 µM (inactive) | > 100 µM (inactive) | > 100 µM (inactive) | > 100 µM (inactive) | > 100 µM (inactive) |  | > 100 µM (inactive) | > 100 µM (inactive) | > 100 µM (inactive) |  | > 100 µM (inactive) | > 100 µM (inactive) |  | > 100 µM (inactive) | > 100 µM (inactive) | > 100 µM (inactive) | > 100 µM (inactive) |  |  |
